From US4610987A, “Imidazoquinazolin-2-one compounds” (Daiichi Seiyaku Co., Ltd., priority 1983, dated 1986)
In brackets after ≈: the same amount, converted by molar mass. Read-outs that look alike come from different tables or passages of the source.

Assays:
[1] = test system: human platelet PDE II; assay: Inhibitory activity on phosphodiesterase, platelet PDE II (cGMP); type: biochemical; conditions: cGMP substrate
Experimental: (§1) Phosphodiesterase fractions were separated from 105,000×g of supernatant fractions from human platelets and heart by DEAE-cellulose column chromatography using the method of Timothy et al. (Arch. Biochem. Biophy. 196, 465-474, 1979) with minor modifications. These fractions were designated PDE I, PDE II and PDE III, depending upon the order of their emergence from the DEAE-cellulose column.
(§2) Phosphodiesterase activity was measured by the method of Thompson and Appleman (Biochemistry 10, 311-316, 1971) with slight modifications. The reaction mixture consisted of 25 mM of Tris-HCl (pH 7.4), 5 mM of MgCl2, 1 μM of [^3 H]-cAMP or cGMP (approximate 20,000 cpm), various concentrations of a test compound and the enzyme preparation. After incubation for 10 minutes at 30° C., the reaction was terminated by boiling the reaction mixture for 45 seconds. 5'-[^3 H]-AMP or GMP formed by phosphodiesterase was converted to [^3 H]adenosine or [^3 H]quanosine by snake venom (Botherop Atrox) containing 5'-nucleotidase and the product isolated by a cation exchange resin was counted in a liquid scintillation counter.

[2] = test system: human heart PDE III; assay: Inhibitory activity on phosphodiesterase, heart PDE III (cAMP); type: biochemical; conditions: for IC50: cAMP substrate
Experimental: as §1, §2

[3] = target: human platelet PDE I (Homo sapiens, UniProt O76074); assay: Inhibitory activity on phosphodiesterase, platelet PDE I (cGMP); type: biochemical; conditions: cGMP substrate
Experimental: as §1, §2

[4] = target: human heart PDE I; assay: Inhibitory activity on phosphodiesterase, heart PDE I (cGMP); type: biochemical; conditions: cGMP substrate
Experimental: as §1, §2

[5] = test system: circulatory system; assay: Test of Influence on Circulatory System (blood pressure, heart beats); type: in vivo, SLC-Wistar rat; conditions: rat, 50 mg/Kg p.o.
Experimental: 5 or 6 male normal SLC-Wistar rats per group (body weight: 205-255 g) orally received 50 mg/Kg of the test compound, and the blood pressure (tail cuff method) and the heart beats were measured with the passage of time in order to elucidate influences of the test compound on the circulatory system.

[6] = target: human platelet PDE III (Homo sapiens, UniProt Q14432); assay: biochemical; conditions: for IC50: cAMP substrate
Experimental: as §1, §2

[7] = test system: platelet aggregation (human platelet-rich-plasma); assay: Test of Platelet Aggregation Inhibition (in vitro), human PRP; type: cell-based; conditions: human blood, ADP-induced
Experimental: (§3) The test was performed as follows in accordance with the method of Ashida et al, Thrombosis and Haemostasis, Vol. 40, 542 (1979).
(§4) Blood was taken by puncture from the heart of a Wistar Imamichi rat under anesthesia with pentobarbital into a syringe containing 1/10 volume of a 3.13% aqueous solution of sodium citrate dihydrate, and the citrated blood was centrifuged to obtain a platelet-rich-plasma (PRP). In the same manner, citrated blood was collected from the vein of a healthy human who had not taken aspirin or any other anti-inflammatory agent since before 10 days, followed by centrifugation to obtain PRP. 5 μl of each test compound was added to 0.445 ml of each of these PRP samples, and the system was warmed at 30° C. for 1 minute. 50 μl of an aggregation inducer (ADP or collagen) was then added thereto, and platelet aggregation was determined according to the method of Born, Nature, Vol. 194, 927 (1962).

[8] = test system: platelet aggregation; assay: Test of Platelet Aggregation Inhibition (ex vivo; i.v.); type: in vivo, Wistar Imamichi rat; conditions: iv, 0.25 h, rat, i.v. 67 μg/Kg/min, 15 min
Experimental: As test animals, 5 to 6 Wistar Imamichi rats (body weight: about 260 g) that had been allowed food and water ad libitum were used per group. The test compound was dissolved in a physiological saline solution and continuously injected over a period of 10 or 15 minutes to the rats under anesthesia with pentobarbital through the femoral vein. Immediately after completion of the administration, citrated blood was collected from the heart, and platelet aggregation was determined in the same manner as in the test in vitro in Test Example 2.

[9] = Solubility Test (water-solubility)
[10] = test system: platelet aggregation; assay: Test of Platelet Aggregation Inhibition (ex vivo, p.o.); type: in vivo, Wistar Imamichi rat; conditions: for inhibition at 10 mg/kg: Platelet, po, ex vivo, rat, 10 mg/Kg p.o., 1 hour, *P<0.05, **P<0.01, ***P<0.001
Experimental: One hour later, citrated blood was taken from the heart, and platelet aggregation was determined in the same manner as described in the in vitro test. The inhibitory activity was compared with that of control and expressed in terms of percent inhibition.

[11] = test system: platelet aggregation (rat platelet-rich-plasma); assay: Test of Platelet Aggregation Inhibition (in vitro), rat PRP; type: cell-based, Wistar Imamichi rat; conditions: for IC50: Platelet, in vitro, rat blood
Experimental: as §3, §4

[12] = test system: platelet aggregation induced by Lewis lung cancer (3LL) cells; assay: Inhibition on Platelet Aggregation Induced by Cancer Cells (in vitro), 3LL; type: cell-based, C57BL/6 mouse; design: key: +: Aggregation was observed.; ±: Aggregation was partially inhibited.; -: No aggregation was observed
Experimental: (§5) It is known nowadays that platelet aggregation plays an important role in metastasis of cancers. […] Tanaka et al. The effect of the compounds of this invention to inhibit the above-described cancer cell-induced platelet aggregation was tested as follows. Cell suspensions of B16 or 3LL were prepared according to the method of Tanaka et al, Invarsion and Metastasis, Vol. 2, 289 (1982). […] Platelet aggregation of the sample system was determined according to the method of Born, and the platelet aggregation inhibitory activity was expressed by the following scale: […]

[13] = test system: platelet aggregation induced by B16 melanoma cells; assay: Inhibition on Platelet Aggregation Induced by Cancer Cells (in vitro), B16; type: cell-based, C57BL/6 mouse; design: key: +: Aggregation was observed.; ±: Aggregation was partially inhibited.; -: No aggregation was observed
Experimental: as §5

[14] = ADP, read-out: ex vivo % inhibition of platelet aggregation, ADP
[15] = collagen, read-out: ex vivo % inhibition of platelet aggregation, Collagen
[16] = ADP-induced, read-out: IC50, platelet aggregation inhibition in vitro, ADP
[17] = collagen-induced, read-out: IC50, platelet aggregation inhibition in vitro, Collagen

Sequence of human platelet PDE III (Q14432 whole entry): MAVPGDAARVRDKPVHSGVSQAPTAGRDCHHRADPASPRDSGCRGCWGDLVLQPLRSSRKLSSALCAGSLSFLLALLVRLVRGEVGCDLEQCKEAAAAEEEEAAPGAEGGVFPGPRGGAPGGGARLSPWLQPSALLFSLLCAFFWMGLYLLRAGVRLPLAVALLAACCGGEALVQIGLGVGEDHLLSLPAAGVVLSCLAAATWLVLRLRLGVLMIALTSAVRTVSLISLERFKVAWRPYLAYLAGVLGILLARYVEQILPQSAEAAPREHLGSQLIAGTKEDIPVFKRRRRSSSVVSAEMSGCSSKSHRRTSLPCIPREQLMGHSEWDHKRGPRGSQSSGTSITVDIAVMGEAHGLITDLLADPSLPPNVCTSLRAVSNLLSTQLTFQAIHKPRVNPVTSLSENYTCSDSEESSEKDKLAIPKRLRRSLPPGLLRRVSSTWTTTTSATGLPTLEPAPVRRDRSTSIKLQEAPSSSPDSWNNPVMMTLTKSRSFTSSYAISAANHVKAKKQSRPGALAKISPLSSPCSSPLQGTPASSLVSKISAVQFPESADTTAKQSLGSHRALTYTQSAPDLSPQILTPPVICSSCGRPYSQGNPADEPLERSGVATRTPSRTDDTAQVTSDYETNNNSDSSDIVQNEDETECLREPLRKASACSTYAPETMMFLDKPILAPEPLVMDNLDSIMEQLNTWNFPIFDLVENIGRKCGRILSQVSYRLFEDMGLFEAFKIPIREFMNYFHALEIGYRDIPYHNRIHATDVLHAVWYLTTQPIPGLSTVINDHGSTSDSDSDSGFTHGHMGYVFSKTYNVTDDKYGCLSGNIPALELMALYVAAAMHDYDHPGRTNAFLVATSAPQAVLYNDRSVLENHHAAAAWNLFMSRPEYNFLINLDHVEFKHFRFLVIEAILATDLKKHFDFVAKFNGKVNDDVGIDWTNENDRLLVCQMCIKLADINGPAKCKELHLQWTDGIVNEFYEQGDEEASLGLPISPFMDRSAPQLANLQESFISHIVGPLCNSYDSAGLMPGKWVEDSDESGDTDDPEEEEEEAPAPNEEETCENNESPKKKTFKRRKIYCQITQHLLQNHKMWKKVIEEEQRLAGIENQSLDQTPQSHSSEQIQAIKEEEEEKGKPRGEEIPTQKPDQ

Row | SMILES | IC50 [1] [nM] | IC50 [2] [nM] | IC50 [3] [nM] | IC50 [4] [nM] | Increase in Heart Beat ([5]; 1 hr, **P<0.01) [%] | Reduction in Blood Pressure ([5]; 1 hr, *P<0.05, **P<0.01) [%] | Increase in Heart Beat ([5]; 2 hr, **P<0.01) [%] | Reduction in Blood Pressure ([5]; 2 hr, *P<0.05, **P<0.01) [%] | Increase in Heart Beat ([5]; 3 hr, **P<0.01) [%] | Reduction in Blood Pressure ([5]; 3 hr, **P<0.01) [%] | Increase in Heart Beat ([5]; 5 hr, **P<0.01) [%] | Reduction in Blood Pressure ([5]; 5 hr, **P<0.01) [%] | Increase in Heart Beat ([5]; 6 hr, *P<0.05, **P<0.01) [%] | Reduction in Blood Pressure ([5]; 6 hr, *P<0.05, **P<0.01) [%] | IC50 [6] [nM] | IC50 [7] [nM] | inhibition at 10 mg/kg [10, 14] [%] | inhibition at 10 mg/kg [10, 15] [%] | IC50 [11, 16] [nM] | IC50 [11, 17] [nM] | further results
1 | CN(C)c1ccc2c(c1)CN1CC(=O)NC1=N2 [Example 21, 7-dimethylamino-1,2,3,5-tetrahydroimidazo[2,1-b]quinazolin-2-one] | 57000 | 1400 | 70000 | > 100000 | 19 | 1.0 | 22 | 5.0 | 20 | 5.0 | 23 | 5.0 | 15 | 1.0 | 1300 | 7200 | 29 | 48 | 5400 | 1400 | activity on heart PDE (in words) ([2]; Table 6): strong activity on heart PDE; IC50 Ratio (PDE II) Heart/Platelet ([6]; Heart/Platelet): 1.1; inhibition at 0.067 mg/kg ([8]; ADP, *P<0.05, read-out: Percent Inhibition of platelet aggregation, ADP): 23%; inhibition at 0.067 mg/kg ([8]; collagen, *P<0.05, read-out: Percent Inhibition of platelet aggregation, Collagen): 71%; water-solubility (in words) [9]: water-soluble; solubility ([9]; tap water, pH 2): > 100000 µg/mL; solubility ([9]; water, pH 4, water): 180 µg/mL (≈ 782 µM); platelet aggregation inhibitory activity (in words) [11]: strong platelet aggregation inhibitory activity
2 | O=C1CN2Cc3c(ccc(Cl)c3Cl)N=C2N1 [BL-4162, 6,7-dichloro-1,2,3,5-tetrahydro[2,1-b]quinazolin-2-one] | 3300 | 96 | 3900 | > 10000 | 28 | 11 | 37 | 16 | 31 | 17 | 31 | 14 | 31 | 13 |  | 1200 | 8 | 53 | 800 | 20 | Increase in Heart Beat ([5]; 4 hr, **P<0.01): 37%; Reduction in Blood Pressure ([5]; 4 hr, **P<0.01): 14%; solubility ([9]; tap water, pH 2): < 10 µg/mL; solubility ([9]; water, pH 4, water): < 10 µg/mL; aggregation inhibitory activity in ADP- or collagen-induced aggregation (in words) ([10]; orally administered, Table 2): widely varied depending on the individual animal and, therefore, cannot be regarded significant
3 | Cl.Cl.O.O=C1CN2Cc3cc(N4CCCCC4)c(Cl)cc3N=C2N1 [Example 16, 8-Chloro-7-piperidino-1,2,3,5-tetrahydroimidazo[2,1-b] quinazolin-2-one dihydrochloride monohydrate] | > 30000 | 95 | 30000 | > 10000 |  |  |  |  |  |  |  |  |  |  | 8.2 | 12500 | 34 | 76 | 400 | 460 | IC50 Ratio (PDE II) Heart/Platelet [6]: 11.6; selectivity to platelet PDE (in words) ([6]; Table 6): high selectivity to platelet PDE; Inhibition on platelet aggregation induced by 3LL ([12]; sample concn. 1 μM): +; Inhibition on platelet aggregation induced by 3LL ([12]; sample concn. 3 μM): -; Inhibition on platelet aggregation induced by 3LL ([12]; sample concn. 10 μM): -; Inhibition on platelet aggregation induced by B16 ([13]; sample concn. 0.3 μM): ±; Inhibition on platelet aggregation induced by B16 ([13]; sample concn. 1 μM): -; water-solubility (in words) [9]: low water-solubility
